Results taken from ChEMBL document CHEMBL2086385, “Synthesis and antimicrobial evaluation of L-phenylalanine-derived C5-substituted rhodanine and chalcone derivatives containing thiobarbituric acid or 2-thioxo-4-thiazolidinone” (2012).

Columns and labels:
Type in all cases: functional
Staphylococcus aureus [1] = test: Antibacterial activity against Staphylococcus aureus RN4220 after 24 hrs by broth microdilution method; settings: RN4220, 24 h
Staphylococcus aureus [2] = test: Antibacterial activity against methicillin-resistant Staphylococcus aureus CCARM 3506 clinical isolate after 24 hrs by broth microdilution method; settings: CCARM 3506, 24 h
Staphylococcus aureus [3] = test: Antibacterial activity against Staphylococcus aureus KCTC 503 after 24 hrs by broth microdilution method; settings: KCTC 503, 24 h
Staphylococcus aureus [4] = test: Antibacterial activity against Staphylococcus aureus KCTC 209 after 24 hrs by broth microdilution method; settings: KCTC 209, 24 h
Staphylococcus aureus [5] = test: Antibacterial activity against quinolone-resistant Staphylococcus aureus CCARM 3505 clinical isolate after 24 hrs by broth microdilution method; settings: CCARM 3505, 24 h
Staphylococcus aureus [6] = test: Antibacterial activity against quinolone-resistant Staphylococcus aureus CCARM 3519 clinical isolate after 24 hrs by broth microdilution method; settings: CCARM 3519, 24 h
Escherichia coli = test: Antibacterial activity against Escherichia coli CCARM 1356 after 24 hrs by broth microdilution method; settings: CCARM 1356, 24 h
Staphylococcus aureus [7] = test: Antibacterial activity against methicillin-resistant Staphylococcus aureus CCARM 3167 clinical isolate after 24 hrs by broth microdilution method; settings: CCARM 3167, 24 h

Measured: MIC

O=Cc1ccc(/C=C/C(=O)c2ccc(Cl)cc2Cl)cc1
> 64 µg/mL: all assays above

O=Cc1ccc(/C=C/C(=O)c2ccccc2F)cc1
> 64 µg/mL: all assays above

O=Cc1ccc(/C=C/C(=O)c2ccc(F)cc2)cc1
> 64 µg/mL: all assays above

O=Cc1ccc(/C=C/C(=O)c2ccccc2Cl)cc1
> 64 µg/mL: all assays above

O=Cc1ccc(/C=C/C(=O)c2cccc(Cl)c2)cc1
> 64 µg/mL: all assays above

O=Cc1ccc(/C=C/C(=O)c2ccc(Cl)cc2)cc1
> 64 µg/mL: all assays above

O=Cc1ccc(/C=C/C(=O)c2ccccc2Br)cc1
> 64 µg/mL: all assays above

O=Cc1ccc(/C=C/C(=O)c2cccc(Br)c2)cc1
> 64 µg/mL: all assays above

O=Cc1ccc(/C=C/C(=O)c2ccc(Br)cc2)cc1
> 64 µg/mL: all assays above

Cc1ccc(C(=O)/C=C/c2ccc(C=O)cc2)cc1
> 64 µg/mL: all assays above

Cc1ccc(C(=O)/C=C/c2ccc(C=O)cc2)c(C)c1
> 64 µg/mL: all assays above

COc1ccccc1C(=O)/C=C/c1ccc(C=O)cc1
> 64 µg/mL: all assays above

COc1cccc(C(=O)/C=C/c2ccc(C=O)cc2)c1
> 64 µg/mL: all assays above

COc1ccc(C(=O)/C=C/c2ccc(C=O)cc2)cc1
> 64 µg/mL: all assays above

CC(=O)Nc1ccc(C(=O)/C=C/c2ccc(C=O)cc2)cc1
> 64 µg/mL: all assays above

O=Cc1ccc(/C=C/C(=O)c2ccccc2)cc1
> 64 µg/mL: all assays above
